Each structure is given as a SMILES string.

A word on the IC50: it is the point on the concentration scale where inhibition reaches its midpoint. Lower therefore signals higher potency.

The target in data set [1] is Cyclin D1/CDK4 (Homo sapiens, UniProt P11802). As to the kind of experiment: CDK4 kinase inhibition, FlashPlate phosphorylation of peptide substrate. The format is biochemical. The note with it: purified enzyme, 2 μM ATP, room temperature. As to the method: (§1) The cytostatic activities were determined by using purified enzymes in 384-well microtiter plates (coated FlashPlates, NEN Life Science). The enzyme activities were determined by means of phosphorylation of specific peptide substrates. A klainetin dilution series prepared beforehand, with concentrations of 100, 50, 25, 12.5, 6.25, 3.125, 1.5625, 0.7813, 0.3906, 0.195, 0.094, 0.047 and 0 μM, were pipetted into the wells in the appropriate order. The reaction mixture (radiolabeled ATP, buffer solution pH 7.4 and enzyme solutions) was then added followed by incubation at room temperature for 1 h.
Sequence of Cyclin D1/CDK4 (P11802 whole entry, species assumed): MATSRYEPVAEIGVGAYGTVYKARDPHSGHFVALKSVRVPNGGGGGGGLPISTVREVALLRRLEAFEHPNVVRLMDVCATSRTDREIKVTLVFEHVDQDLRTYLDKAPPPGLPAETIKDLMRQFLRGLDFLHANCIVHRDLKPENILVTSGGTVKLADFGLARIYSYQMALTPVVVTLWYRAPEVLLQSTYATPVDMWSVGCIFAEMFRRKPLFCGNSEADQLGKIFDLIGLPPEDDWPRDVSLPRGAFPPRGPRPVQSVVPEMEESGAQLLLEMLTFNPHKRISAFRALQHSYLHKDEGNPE
Sequence of Cyclin D1/CDK4 (P24385 whole entry partner, species assumed): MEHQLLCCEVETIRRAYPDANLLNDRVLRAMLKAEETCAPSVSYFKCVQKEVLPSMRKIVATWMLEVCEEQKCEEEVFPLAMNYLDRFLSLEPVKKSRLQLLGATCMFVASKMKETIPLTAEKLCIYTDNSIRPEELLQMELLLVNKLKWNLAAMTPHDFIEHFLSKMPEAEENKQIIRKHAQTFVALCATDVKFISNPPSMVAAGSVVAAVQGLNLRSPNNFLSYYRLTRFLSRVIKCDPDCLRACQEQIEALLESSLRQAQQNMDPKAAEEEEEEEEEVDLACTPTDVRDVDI
Description of CDK4 reaction mixture:
Kinase buffer: 50 mM HEPES, 10 mM MgCl2, 2.5 mM EGTA pH8.0, 10 mM β-glycerol phosphate, 1 mM orthovanadate, 1 mM sodium fluoride, and 1 mM DTT
Biotinylated peptide substrate for FlashPlate coating (1 mg/ml solution in PBS buffer)
ATP solution: 100 μCi/ml 33P-γ-ATP and 10 μM ATP
Cyclin D1/CDK4 enzyme solution: 100 mg/ml in kinase buffer
Wash solution: 3% phosphoric acid
30 μl of diluted klainetin solution, 20 μl of ATP/enzyme solution (final conc. 1 μCi 33P-γ-ATP, 2 μM ATP and 1 μg of enzyme) […]
(§2) The activity of the kinases (CDK4 or KDR) was meaured by incorporation of radioactive phosphate from ATP into the substrate and the inhibitory action of the klainetins (IC50) was calculated.

For data set [2], the target named is CDK2 (Homo sapiens, UniProt P24941). The experiment in a line: CDK2 kinase inhibition (IC50). The format is biochemical. The note with it: purified enzyme.
The target of data set [3] is KDR (Homo sapiens, UniProt P35968). The experiment in a line: KDR kinase inhibition, phosphorylation of PLCγ1 peptide substrate. The format is biochemical. The note with it: purified enzyme, 5 μM ATP, room temperature 1 h. As to the method: as §1
Sequence of KDR (P35968 20-1356, species assumed): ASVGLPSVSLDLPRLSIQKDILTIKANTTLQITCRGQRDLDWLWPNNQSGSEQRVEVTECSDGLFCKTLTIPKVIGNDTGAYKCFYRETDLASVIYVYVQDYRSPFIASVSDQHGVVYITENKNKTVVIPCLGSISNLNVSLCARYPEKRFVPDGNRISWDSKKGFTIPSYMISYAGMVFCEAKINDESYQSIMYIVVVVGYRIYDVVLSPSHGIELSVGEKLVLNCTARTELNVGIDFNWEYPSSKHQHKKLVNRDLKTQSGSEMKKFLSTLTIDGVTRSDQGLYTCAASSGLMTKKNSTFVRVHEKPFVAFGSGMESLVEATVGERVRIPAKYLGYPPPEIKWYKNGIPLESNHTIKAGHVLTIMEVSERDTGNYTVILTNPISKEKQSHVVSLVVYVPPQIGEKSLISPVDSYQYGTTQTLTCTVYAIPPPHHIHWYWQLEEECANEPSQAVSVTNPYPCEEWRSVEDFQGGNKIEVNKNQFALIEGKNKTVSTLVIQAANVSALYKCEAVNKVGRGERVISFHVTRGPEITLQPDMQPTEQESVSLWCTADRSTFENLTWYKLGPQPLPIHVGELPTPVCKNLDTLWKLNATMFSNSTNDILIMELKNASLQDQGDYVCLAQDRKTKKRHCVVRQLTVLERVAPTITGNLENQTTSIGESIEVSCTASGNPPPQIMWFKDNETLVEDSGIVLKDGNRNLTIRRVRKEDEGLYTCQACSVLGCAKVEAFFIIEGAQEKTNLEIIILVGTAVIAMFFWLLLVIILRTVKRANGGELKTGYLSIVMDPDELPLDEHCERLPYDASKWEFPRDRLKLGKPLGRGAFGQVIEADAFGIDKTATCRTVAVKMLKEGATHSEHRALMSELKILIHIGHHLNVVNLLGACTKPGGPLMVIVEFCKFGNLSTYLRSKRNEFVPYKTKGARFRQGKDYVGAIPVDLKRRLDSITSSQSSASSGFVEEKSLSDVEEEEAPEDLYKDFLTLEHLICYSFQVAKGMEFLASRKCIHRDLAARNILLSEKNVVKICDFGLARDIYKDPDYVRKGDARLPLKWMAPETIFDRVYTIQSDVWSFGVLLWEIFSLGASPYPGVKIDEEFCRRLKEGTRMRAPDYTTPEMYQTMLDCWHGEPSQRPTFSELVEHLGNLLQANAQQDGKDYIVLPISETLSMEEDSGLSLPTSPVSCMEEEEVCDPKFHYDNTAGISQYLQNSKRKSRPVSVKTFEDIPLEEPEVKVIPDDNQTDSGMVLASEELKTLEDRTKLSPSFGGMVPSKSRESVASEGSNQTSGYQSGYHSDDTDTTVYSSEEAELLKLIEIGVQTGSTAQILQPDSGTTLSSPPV
Description of KDR reaction mixture:
Kinase buffer: 50 mM MOPS, pH7.4, 10 mM MgCl2, 2 mM DTT, 2.5 mM EGTA, 10 mM β-glycerol phosphate, 1 mM orthovanadate, and 1 mM sodium fluoride
ATP solution: 25 μCi/ml 33P-γ-ATP und 12.5 μM ATP
KDR enzyme solution: 3.5 μg/ml in kinase buffer
Wash solution: PBS (without Mg^2+, Ca^2+)
10 μl diluted klainetin solution
20 μl of enzyme solution (3.5 μg/ml; 70 ng/well)
20 μl of ATP solution (final concentration 0.5 μCi and 5 μM ATP/well)
Incubation at room temperature for 1 h, followed by washing 3× with 75 μl of wash solution and measurement in MicroBeta Counter (Wallac) for 30 sec.
as §2

The nature of data set [4]: Solubility (characterization). The format is physicochemical.
The nature of data set [5]: Stability (characterization). The format is physicochemical.

Regarding `COc1c(Cc2cccc(O)c2O)c(O)cc2c1C(=O)CC(c1ccccc1)O2` (centres unmarked) [Klainetin A, klainetin A], the IC50 was 2.09 µM in data set [1], 21.5 µM in data set [2] and 6.96 µM in data set [3]. Moreover, the “solubility in polar organic solvents” value in data set [4] is listed as “soluble”. Moreover, in data set [4], the solubility in water entry is “only slightly soluble”. Further, the “stability in the alkaline and strongly acidic range” value in data set [5] (alkaline and strongly acidic range) was “unstable”. Moreover, in data set [5], the “stability in a neutral and mildly acidic environment” value is recorded as “stable”.
For `COc1cc(O)c(Cc2cccc(O)c2O)c(O)c1C(=O)/C=C/c1ccccc1` [Klainetin B, klainetin B], the half-maximal inhibitory concentration (IC50) in data set [1] was 1.14 µM; in data set [2], 6.04 µM; in data set [3], 6.48 µM. Further, in data set [4], the “solubility in polar organic solvents” value was “soluble”. For the same compound, the solubility in water result in data set [4] is “only slightly soluble”. Further, the “stability in the alkaline range” value in data set [5] (alkaline range) is listed as “unstable”. Also, in data set [5], the “stability in a neutral and mildly acidic environment” value is reported as “stable”.

Values taken from patent publication US6579903B2, “Klainetins and their derivatives, method for their preparation and use thereof” (Aventis Pharma Deutschland GmbH, priority 2000, dated 2003).
